The source of these data is patent US9155791B2, “Metallation enhancements in tumor-imaging and PDT therapy” (Health Research, Inc., priority 2010, dated 2015).

The test system of the assay is tumors. Nature of the assay: Fluorescence tumor imaging dose versus PDT therapeutic dose (FIG. 4). It counts as in vivo.

Turning to `CCCCCCOC(C)c1c(C)c2cc3nc(c4c5[nH]c(cc6nc(cc1[nH]2)C(C)=C6CC)c(C)c5C(=O)C4)C(CCC(=O)Nc1ccc(SC2=C(C=CC4=[N+](CCCCS(=O)(=O)[O-])c5ccc6ccccc6c5C4(C)C)CCCC2=CC=C2N(CCCCS(=O)(=O)[O-])c4ccc5ccccc5c4C2(C)C)cc1)C3C.[Na+]` (stereo not shown) [HPPH-CD], the “therapeutic dose relative to tumor-imaging dose (fold higher)” value was ~10 fold.
